Data reported in ChEMBL document CHEMBL3045067, “-Amino butyric acid analogs as novel potent GABA-AT inhibitors: molecular docking, synthesis, and biological evaluation” (Med Chem Res, 2013).

These compounds were tested against 4-aminobutyrate aminotransferase, mitochondrial (Rattus norvegicus, UniProt P50554) (assay: Inhibition of Rattus norvegicus (rat) brain gamma-amino butyrate aminotransferase using gamma-amino butyrate as substrate assessed as decrease in NADPH generation after 30 min by spectrophotometric analysis).
4-aminobutyrate aminotransferase, mitochondrial, sequence (P50554 whole entry): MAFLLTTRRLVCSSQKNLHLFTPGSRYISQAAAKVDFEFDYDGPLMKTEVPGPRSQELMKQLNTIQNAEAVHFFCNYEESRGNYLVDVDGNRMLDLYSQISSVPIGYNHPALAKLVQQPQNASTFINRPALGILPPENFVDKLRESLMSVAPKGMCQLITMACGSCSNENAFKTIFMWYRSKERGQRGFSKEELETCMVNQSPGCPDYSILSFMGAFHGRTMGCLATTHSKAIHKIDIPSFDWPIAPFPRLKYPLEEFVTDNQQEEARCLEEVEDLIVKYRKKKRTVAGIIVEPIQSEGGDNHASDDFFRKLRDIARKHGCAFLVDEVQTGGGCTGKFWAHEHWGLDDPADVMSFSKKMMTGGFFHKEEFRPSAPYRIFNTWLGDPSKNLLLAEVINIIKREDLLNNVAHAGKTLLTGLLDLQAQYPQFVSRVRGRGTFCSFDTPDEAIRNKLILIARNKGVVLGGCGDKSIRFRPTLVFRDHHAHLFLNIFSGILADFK

**Q.** Which IC50 does the source give for `NCCCC(=O)N/N=C1\CCCc2ccccc21` here?
**A.** The IC50 was 280 nM.

**Q.** With `NCCCC(=O)N/N=C(/C(=O)c1ccccc1)c1ccccc1` as the compound, how does the IC50 read?
**A.** The IC50 was 300 nM.

**Q.** For `NCCCC(=O)N/N=C(\c1ccccc1)c1ccc(Br)cc1`, which IC50 is on record?
**A.** The IC50 was 560 nM.

**Q.** For `O=C(O)CCCN=C(/C=C/c1ccccc1)/C=C/c1ccccc1`, which IC50 is on record?
**A.** The IC50 was 9950 nM.

**Q.** `CC12CCC(C1)C(C)(C)/C2=N\CCCC(=O)O` (stereo not drawn) was tested. Which IC50 did it give?
**A.** Its IC50 is 10000 nM.

**Q.** For `O=C(O)CCC/N=C1/C(=O)c2ccccc2-c2ccccc21`, which IC50 is on record?
**A.** Its IC50 is 15500 nM.

**Q.** Which IC50 does the source give for `O=C(O)CCC/N=C1/C(=O)c2cccc3cccc1c23` here?
**A.** The IC50 was 16800 nM.

**Q.** `CC1CCCC/C1=N\CCCC(=O)O` (stereo not drawn) was tested. Which IC50 did it give?
**A.** Its IC50 is 20800 nM.

**Q.** Which IC50 does the source give for `CC1CCC(C(C)C)/C(=N/CCCC(=O)O)C1` (stereo not drawn) here?
**A.** Its IC50 is 20800 nM.

**Q.** For `C=C(C)C1CC=C(C)/C(=N/CCCC(=O)O)C1` (stereo not drawn), which IC50 is on record?
**A.** Its IC50 is 23500 nM.

**Q.** Which IC50 does the source give for `CC1=C/C(=N/CCCC(=O)O)CC(C)(C)C1` here?
**A.** Its IC50 is 25900 nM.

**Q.** For `CC1=CC(=O)C=C/C1=N\CCCC(=O)O`, which IC50 is on record?
**A.** The IC50 was 30100 nM.

**Q.** For `C/C(=N\CCCC(=O)O)c1ccc2ccccc2c1`, which IC50 is on record?
**A.** The IC50 was 44100 nM.

**Q.** For `Nc1cccc(C(=O)N/N=C2/c3ccccc3C(=O)c3ccc(O)c(O)c32)c1`, which IC50 is on record?
**A.** The IC50 was 240 nM.

**Q.** With `C/C(=N/NC(=O)c1cccc(N)c1)c1cccc(Cl)c1` as the compound, how does the IC50 read?
**A.** The IC50 was 320 nM.

**Q.** `Nc1cccc(C(=O)N/N=C(/c2ccccc2)c2ccc(Cl)cc2)c1` was tested. Which IC50 did it give?
**A.** Its IC50 is 370 nM.

**Q.** `Nc1cccc(C(=O)N/N=C2/c3ccccc3C(=O)c3ccc(Cl)cc32)c1` was tested. Which IC50 did it give?
**A.** The IC50 was 460 nM.

**Q.** With `CCc1ccc2c(c1)/C(=N/c1cccc(C(=O)O)c1)c1ccccc1C2=O` as the compound, how does the IC50 read?
**A.** The IC50 was 1210 nM.

**Q.** How did the IC50 turn out when `O=C(O)c1cccc(/N=C2\C(=O)c3ccccc3-c3ccccc32)c1` was run?
**A.** The IC50 was 2780 nM.

**Q.** `O=C(O)c1cccc(N=C2c3ccccc3C(=O)c3ccccc32)c1` was tested. Which IC50 did it give?
**A.** The IC50 was 4960 nM.

**Q.** Which IC50 does the source give for `CC1=C(C)C(=Nc2cccc(C(=O)O)c2)C(C)=C(C)C1=O` here?
**A.** Its IC50 is 6540 nM.

**Q.** `C/C(=N/NC(=O)CCCN)c1ccccc1Br` was tested. Which IC50 did it give?
**A.** The IC50 was 73 nM.

**Q.** `C/C(=N/NC(=O)CCCN)c1cccc(Cl)c1` was tested. Which IC50 did it give?
**A.** Its IC50 is 91 nM.

**Q.** `Cc1ccc2c(c1)/C(=N\NC(=O)CCCN)c1ccccc1C2=O` was tested. Which IC50 did it give?
**A.** Its IC50 is 110 nM.

**Q.** How did the IC50 turn out when `NCCCC(=O)N/N=C/c1cccc(I)c1` was run?
**A.** The IC50 was 150 nM.

**Q.** How did the IC50 turn out when `NCCCC(=O)N/N=C1\CCc2ccccc2C1` was run?
**A.** The IC50 was 130 nM.

**Q.** How did the IC50 turn out when `NCCCC(=O)NN=C1c2ccccc2C(=O)c2ccccc21` was run?
**A.** Its IC50 is 140 nM.

**Q.** Which IC50 does the source give for `NCCCC(=O)N/N=C/c1ccccc1I` here?
**A.** Its IC50 is 200 nM.
